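A five-concentration, 48-hour dose response in 96-well plates underlies each endpoint, interpolated linearly between surrounding concentrations. The concentration for 50% growth inhibition is given as GI50. TGI: concentration producing complete growth inhibition.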
Columns and labels:
Assay in all cases: NCI anticancer screen, dose series, 48 h
[1] = tested on: HT29 colon
[2] = tested on: RPMI-8226 leukemia
[3] = tested on: MOLT-4 leukemia
[4] = tested on: SK-MEL-5 melanoma
[5] = tested on: SK-OV-3 ovarian
[6] = tested on: KM12 colon
[7] = tested on: M14 melanoma
[8] = tested on: A549 NSCLC
[9] = tested on: NCI-H226 lung
[10] = tested on: U251 CNS

SMILES	GI50 [1] [µM]	TGI [1] [µM]	GI50 [2] [µM]	TGI [2] [µM]	GI50 [3] [µM]	TGI [3] [µM]	GI50 [4] [µM]	TGI [4] [µM]	GI50 [5] [µM]	TGI [5] [µM]	GI50 [6] [µM]	TGI [6] [µM]	GI50 [7] [µM]	TGI [7] [µM]	GI50 [8] [µM]	TGI [8] [µM]	GI50 [9] [µM]	TGI [9] [µM]	GI50 [10] [µM]	TGI [10] [µM]
COc1cccc(Nc2nccc(Nc3ccc4[nH]ncc4c3)n2)c1	1.52	3.45	1.36	4.19	0.525	2.83	1.22	2.47	2.31	5.4	1.64	4.81	1.35	2.81	1.71	3.74	1.82	4.46	1.58	3.18
C=C1C(=O)OC2CC3(C)OC3C3OC3C3=CC(OC3=O)C12 (stereo not given)	3.21	10.8	7.34	33.2	3.25	9.75	14.9	30.3	25.4	> 57	18.7	37.7	8.75	24.2	21.3	46.8	8.82	28.5	17.7	35
CC(=O)/C=C/C1=C(c2ccsc2)c2ccccc2CC1	54.3	> 100	23.2	47.6	17.6	37.1	16.3	31.6	64.4	> 100	17.2	33	17.8	37.1	17.4	37.5	18.8	44.4	22.1	48.8
ClC1=C(Cl)C(Cl)=C(Cl)C1=Cc1ccc(Cl)cc1	0.27	0.735	0.422	5.32	0.356	2.96	1.17	2.41	1.64	3.55	0.844	2.38	0.287	0.904	0.918	2.54	0.389	1.86	0.344	1.23
O=C1c2cccc3cc([N+](=O)[O-])cc(c23)C(=O)N1O		> 100		> 100		> 100		> 100		> 100		61.7		> 100		> 100		> 100		> 100
CCOc1cc(/C=N\NC(=O)N/N=C/c2ccc(O)c(OCC)c2)ccc1O	3.38	> 100	4.79	> 53	3.41	> 76.8	1.05	18	1.25	> 100	1.01	> 100	1.63	> 100	6.95	> 100	> 100	> 100	1.75	> 100
CC1=NN(c2ccccc2)C(=O)C1N=Nc1ccc(Br)c(C)c1 (stereo not given)		> 100		> 100		> 100		> 100		> 100		> 100		> 100		> 100		> 100		> 100
N#CC12Cc3ccc4c(c3-c3cccc(c31)CCN2C(=O)c1ccccc1)OCO4 (stereo not given)		> 100		> 100		> 100		> 100		> 100		> 100		> 100		> 100		> 100		> 100
CC[O-].CC[O-].O=C([CH-]C(=O)c1ccccc1)c1ccccc1.O=C([CH-]C(=O)c1ccccc1)c1ccccc1.[Ti+4]	> 100	> 100	45.4	> 100	46.5	> 100	> 100	> 100	> 100	> 100	> 100	> 100	> 100	> 100	> 100	> 100	25.2	> 100	57.2	> 100
CC(C)N(C[C@H]1O[C@@H](n2cnc3c(N)ncnc32)[C@H](O)[C@@H]1O)C1CC(CCc2nc3ccc(C(C)(C)C)cc3[nH]2)C1 (stereo not given in full)	94.8	> 100	46	> 100	30.9	> 81.3	> 95.1	> 100	> 100	> 100	> 100	> 100	> 72.2	> 100	> 100	> 100	> 100	> 100	> 100	> 100
Cc1cc2c(cc1C)[n+]([O-])c(-c1c(Cl)cccc1Cl)c(N)[n+]2[O-]		> 100		> 100		> 100		41.7		> 100		> 100		> 100		98.9		74.4		> 100
O=C1c2ccccc2C(=O)c2sc(Nc3ccc(Cl)c(Cl)c3)nc21		42.5		5		6.37		5.83		32.1		18		9.86		54.5		16.2		6.05
CS(=O)(=O)c1nc(Cl)c(Cl)c(C#N)c1Cl		4.35		14.6		6.02		15.5		10.7		17.6		3.64		40.4		24.6		11.7
CC12OC3CC(O1)C1(C=O)C4CCC5(C)C(c6ccc(=O)oc6)CCC5(O)C4CCC1(C3)O2 (stereo not given)		1.3		0.304		0.244		0.328		0.513		1.4		0.596		0.194		1.23		1.24
N#CC[C@H](C1CCCC1)n1cc(-c2ncnc3[nH]ccc23)cn1	19.7	41.5	36	> 100	20.7	> 78.8	17.2	49	24.7	> 88	2.71	> 62.6	30.3	> 88.6	30.1	> 100	9.28	> 92.5	32.5	> 100
COc1cnc2c(c1)C(=O)c1c-2n(CCCN2CCN(CCO)CC2)c(=O)c2cc([N+](=O)[O-])ccc12	1.24	2.63	1.57	6.75	0.552	4.45	1.44	2.78	4.99	20.2	1.74	4.41	0.769	2.49	1.13	2.48	0.964	20	1.16	2.42
C[N+]1=c2c3cccc4cccc(c(=O)n2CCC1)c43		52.5		52.3		58.9		32.5		80.1		> 100		33.2		96.8		36.5		> 100
O=C(CC1(O)C(=O)Nc2c(Cl)ccc(Cl)c21)c1ccc(C2CC2)cc1 (stereo not given)	0.586	2.22	0.87	16.5	1.19	18.1	1.37	13.8	1.33	17	0.445	15.9	0.422	3.25	2.09	19.8	3.05	25.5	1.13	14.6
CN1CCN(c2ccc3nc4c(nc3c2C(F)(F)F)C(=O)c2ncccc2C4=O)CC1	2.32	6.18	2.37	7.59	2.28	5.52	1.43	2.76	1.98	4.98	2.28	10.9	1.32	2.86	1.21	3.92	2.13	4.74	1.38	4.04
Brc1ccc(Br)nn1	3.38	> 22.3	1.83	6.44	1.69	5.48	1.49	3.85	8.64	20.8	12	26.1	1.39	2.82	12.5	32.4	2.28	5.57	1.47	3.18
COc1cc(/C=C/C(=O)c2ccc(Nc3nc(Nc4ccccc4)nc(Nc4ccc(Cl)cc4)n3)cc2)cc(OC)c1OC	5.39	> 32.5	2.21	20.9	2.65	> 32.5	4.76	30.6	> 32.5	> 32.5	8.83	> 32.5	15.1	> 32.5	> 32.5	> 32.5	7.66	> 32.5	4.62	> 32.5
C[C@@H]1CN2[C@H]3[C@@H]1CC[C@]31CCC(=O)O[C@]1(C)[C@@H]1CC[C@H]3CCC=C3[C@@H]12	> 70	> 70	> 70	> 70	> 70	> 70	> 70	> 70	> 70	> 70	> 70	> 70	> 70	> 70	> 70	> 70	> 70	> 70	> 70	> 70
CCc1oc2ccc(OC)c3c2c1C=CC=C3		> 100		> 100		> 100		> 100		> 100		> 100		> 100		> 100		> 100		> 100
Cc1cccnc1CNC1CC(NCc2ncccc2C)CC(NCc2ncccc2C)C1 (stereo not given)	3.36	> 39.3	1.91	4.3	2.72	5.38	1.92	3.83	1.98	3.73	4.51	20.4	1.96	4.35	2.01	4.21	1.65	3.17	1.81	3.36
CNCCOc1nc2c3cnccc3cc(-c3cc(OC)c(OC)c(OC)c3)c2c2ccncc12	0.0372	1.07	0.0229	0.113	< 0.01	0.0478	0.0288	0.144	0.0323	0.185	0.0536	2.52	0.0233	0.147	0.01	0.101	0.054	0.37	0.0241	0.523
COc1cc2c3c(c1O)C1(C=CC(=O)C=C1)CC3N(C)CC2 (stereo not given)		23.4		83.7		37.3		32.6		> 100		17.5		24.5		> 100		> 100		15.4
CCS/C(Nc1ccccc1)=C(\C#N)C(=O)N/N=C/c1ccc(Cl)cc1Cl	3.7	> 100	3.68	> 100	3.48	> 100	2.28	8.53	3.72	> 100	4.04	> 100	2.01	9.61	4.63	> 100	4	> 100	3.95	> 100
CC[C@H](C)[C@H](NC(=O)C12CC(NC(C)=O)(C1)C2)C(=O)N(C)[C@H](C[C@@H](OC(C)=O)c1nc(C(=O)N[C@@H](Cc2ccccc2)C[C@H](C)C(=O)OC)cs1)C(C)C	0.0731	> 5.52	0.0585	> 3.64	0.748	> 16.7	0.0807	2.76	0.394	> 10.9	0.296	> 16.7	0.13	1.88	0.907	> 16.7	> 7.53	> 16.7	0.433	> 16.7

— PubChem BioAssay (NCI)
